pH data for six compounds are collected here from patent publication US7803942B2, “Crystals of morphinan derivative and process for producing the same” (Toray Industries, Inc., priority 2005, dated 2010).

This data set can be described thus: pH of aqueous solution after production (Test Example 2). It is filed as physicochemical. Particulars: 100 mg dissolved in 10 mL of decarbonated water; pH reproducibility after production; hydrochloride. Here is the method:
There was taken 100 mg each of the amorphous powders obtained in Reference Examples 1 to 3 and the A-form crystals obtained in Examples 1 to 3, to which 10 mL of decarbonated water was added for dissolution, followed by measuring the pH.

Take `CN(C(=O)/C=C/c1ccoc1)[C@@H]1CC[C@@]2(O)[C@H]3Cc4ccc(O)c5c4[C@@]2(CCN3CC2CC2)[C@H]1O5.Cl` [Example 3, 17-cyclopropylmethyl-3,14β-dihydroxy-4,5α-epoxy-6β-[N-methyl-trans-3-(3-furyl)acrylamido]morphinan hydrochloride]: the pH worked out at 5.6. `CN(C(=O)/C=C/c1ccoc1)[C@@H]1CC[C@@]2(O)[C@H]3Cc4ccc(O)c5c4[C@@]2(CCN3CC2CC2)[C@H]1O5.Cl` [Example 2, 17-cyclopropylmethyl-3,14β-dihydroxy-4,5α-epoxy-6β-[N-methyl-trans-3-(3-furyl)acrylamido]morphinan hydrochloride] returned a pH of 5.4.

Compound `CN(C(=O)/C=C/c1ccoc1)[C@@H]1CC[C@@]2(O)[C@H]3Cc4ccc(O)c5c4[C@@]2(CCN3CC2CC2)[C@H]1O5.Cl` [Reference Example 1, 17-cyclopropylmethyl-3,14β-dihydroxy-4,5α-epoxy-6β-[N-methyl-trans-3-(3-furyl)acrylamido]morphinan hydrochloride] came in with a pH of 3.7. `CN(C(=O)/C=C/c1ccoc1)[C@@H]1CC[C@@]2(O)[C@H]3Cc4ccc(O)c5c4[C@@]2(CCN3CC2CC2)[C@H]1O5.Cl` [Example 1, 17-cyclopropylmethyl-3,14β-dihydroxy-4,5α-epoxy-6β-[N-methyl-trans-3-(3-furyl)acrylamido]morphinan hydrochloride] displayed a pH of 5.8. The compound `CN(C(=O)/C=C/c1ccoc1)[C@@H]1CC[C@@]2(O)[C@H]3Cc4ccc(O)c5c4[C@@]2(CCN3CC2CC2)[C@H]1O5.Cl` [Reference Example 2, 17-cyclopropylmethyl-3,14β-dihydroxy-4,5α-epoxy-6β-[N-methyl-trans-3-(3-furyl)acrylamido]morphinan hydrochloride] returned a pH of 4.7.

For the compound `CN(C(=O)/C=C/c1ccoc1)[C@@H]1CC[C@@]2(O)[C@H]3Cc4ccc(O)c5c4[C@@]2(CCN3CC2CC2)[C@H]1O5.Cl` [Reference Example 3, 17-cyclopropylmethyl-3,14β-dihydroxy-4,5α-epoxy-6β-[N-methyl-trans-3-(3-furyl)acrylamido]morphinan hydrochloride], the pH is 3.5.
